Measured values as given in PubChem BioAssay (NCI).
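Five concentrations, 48 hours, 96-well plates. TGI: total growth inhibition.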

How the values were obtained:
Experiment in all cases: NCI-60 cell line screen, 48 h
U251 CNS = test system: U251 CNS
CAKI-1 renal = test system: CAKI-1 renal
SW-620 colon = test system: SW-620 colon
UO-31 renal = test system: UO-31 renal
MALME-3M melanoma = test system: MALME-3M melanoma
HL-60(TB) leukemia = test system: HL-60(TB) leukemia
ACHN renal = test system: ACHN renal
K-562 leukemia = test system: K-562 leukemia
HCT-116 colon = test system: HCT-116 colon
OVCAR-3 ovarian = test system: OVCAR-3 ovarian
SNB-19 CNS = test system: SNB-19 CNS
SK-OV-3 ovarian = test system: SK-OV-3 ovarian
MOLT-4 leukemia = test system: MOLT-4 leukemia
SNB-75 CNS = test system: SNB-75 CNS

SMILES | TGI (U251 CNS) [µM] | TGI (CAKI-1 renal) [µM] | TGI (SW-620 colon) [µM] | TGI (UO-31 renal) [µM] | TGI (MALME-3M melanoma) [µM] | TGI (HL-60(TB) leukemia) [µM] | TGI (ACHN renal) [µM] | TGI (K-562 leukemia) [µM] | TGI (HCT-116 colon) [µM] | TGI (OVCAR-3 ovarian) [µM] | TGI (SNB-19 CNS) [µM] | TGI (SK-OV-3 ovarian) [µM] | TGI (MOLT-4 leukemia) [µM] | TGI (SNB-75 CNS) [µM]
COC(=O)CN(CC(=O)NCCNC(=O)OC(C)(C)C)C1CCCCC1N(CC(=O)OC)CC(=O)OC (centres undefined) | > 100 | > 100 | > 100 | > 100 | > 100 | > 100 | > 100 | > 100 | > 100 | > 100 | > 100 | > 100 | > 100 | –
Cc1[nH]c2ncn3[nH]c(=S)nc3c2c1Cc1ccccc1 | > 100 | > 100 | > 100 | > 100 | > 100 | > 100 | > 100 | – | > 100 | > 100 | > 100 | > 100 | > 100 | > 100
CSc1nc(-c2ccccc2)[nH]c(=O)n1 | > 100 | > 100 | > 100 | > 100 | > 100 | > 100 | > 100 | – | > 100 | > 100 | > 100 | > 100 | > 100 | –
O=C1NC(=O)C(CCC(=O)c2cccc3ccccc23)C(=O)N1 | > 100 | > 100 | > 100 | > 100 | – | > 100 | > 100 | > 100 | > 100 | > 100 | > 100 | > 100 | > 100 | > 100
O=C1/C(=C/c2ccccc2Cl)COc2ccc(Br)cc21 | > 100 | – | > 100 | > 100 | > 100 | > 100 | > 100 | 31.7 | > 100 | > 100 | – | 85 | > 100 | > 100
Cc1ccc(S(=O)(=O)N(CCN)c2cc3c4c(c2)Oc2cccc5c2C4c2c(cccc2O3)O5)cc1 | > 100 | – | > 100 | > 100 | 22.2 | – | > 100 | > 100 | 30.5 | 42.2 | > 100 | > 100 | > 100 | 25.1
Nc1nc(Cl)c(N)c(NCC2(CO)CCC(OCc3ccccc3)C2)n1 (centres undefined) | > 100 | > 100 | > 100 | > 100 | > 100 | – | > 100 | > 100 | > 100 | > 100 | > 100 | > 100 | > 100 | > 100
Cc1cc(C)n(-c2nc(-n3nc(C)cc3C)nc(-n3nc(C)cc3C)n2)n1 | – | > 100 | > 100 | > 100 | > 100 | > 100 | > 100 | > 100 | > 100 | > 100 | > 100 | > 100 | > 100 | –
CC(=O)NC(CCCNC(=O)N(C)N=O)C(=O)NCc1ccccc1 (centres undefined) | > 100 | > 100 | > 100 | > 100 | > 100 | – | > 100 | > 100 | > 100 | > 100 | > 100 | > 100 | > 100 | > 100
CCOC(=O)c1c(NC(=S)Nc2ccccc2)sc2c1CCN(C)C2 | – | > 100 | – | > 100 | – | > 100 | > 100 | > 100 | > 100 | > 100 | > 100 | – | > 100 | –
COc1c(Sc2c(SCSc3cnc4ccccc4c3Sc3cnc4ccccc4c3OC)cnc3ccccc23)cnc2ccccc12 | > 100 | > 100 | > 100 | > 100 | – | 26.3 | > 100 | – | > 100 | > 100 | 77.3 | – | > 100 | > 100
CCOC(=O)c1cc(=O)c2cccc3c2n1CCS3 | > 100 | > 100 | > 100 | > 100 | – | > 100 | > 100 | – | > 100 | > 100 | > 100 | > 100 | > 100 | > 100
CC(=O)C1C(=O)C(=O)N(c2ccc([N+](=O)[O-])cc2[N+](=O)[O-])C1=O (centres undefined) | > 100 | > 100 | > 100 | > 100 | – | > 100 | > 100 | – | > 100 | > 100 | > 100 | > 100 | > 100 | > 100
CCC1C(NC(=O)OC)C(=O)N1[C@@H](C)c1ccccc1 (some centres undefined) | > 100 | > 100 | > 100 | > 100 | > 100 | – | > 100 | > 100 | > 100 | > 100 | > 100 | > 100 | > 100 | > 100
N#CC(O)CCOCc1ccccc1 (centres undefined) | > 100 | 35.6 | > 100 | > 100 | – | > 100 | > 100 | > 100 | > 100 | > 100 | > 100 | > 100 | 14.8 | –
Brc1ccc(-c2[nH]c3ccccc3c2/C=N\Nc2ccc(-c3nc4ccccc4[nH]3)cc2)cc1 | > 42.1 | > 100 | > 49.5 | > 100 | 24 | > 100 | 17.3 | > 39.2 | – | > 100 | > 100 | > 100 | 22.1 | –
O=C1N[C@H]2C(=O)c3c(Br)sc(Br)c3[C@H]2O1 | 8.87 | 9.81 | 4.76 | 4.22 | 11.3 | – | 18.1 | > 21.7 | 7.33 | 17 | 30.7 | 34.7 | 5.25 | 31.4
COc1cccc([C@@H]2C/C(=N\NC(=O)C(=O)N[C@@H](C)c3ccccc3)c3ccccc3N2)c1 | > 100 | > 100 | > 100 | > 100 | – | – | > 100 | > 100 | > 100 | > 100 | > 100 | > 100 | 34.8 | > 100
